# Test results reported in patent US9243025B2, “Compounds and pharmaceutical compositions for the treatment of viral infections” (Idenix Pharmaceuticals, LLC, priority 2011, dated 2016).
# Where two headings read alike, the source gives them in different places.
# What was measured:
# [1] = tested on: Huh-7 cells containing HCV Coni subgenomic replicon (GS4.1 cells); assay: HCV replicon assay; assay type: cell-based; conditions: read-out: HCV Replicon EC50
# Method: (§1) Huh-7 cells containing HCV Coni subgenomic replicon (GS4.1 cells), (C. Seeger; Fox Chase University, Philadelphia, Pa., USA), are grown in Dulbecco's Modified Eagle Medium (DMEM) supplemented with 10% fetal bovine serum (FBS), 2 mM L-glutamine, 110 mg/L sodium pyruvate, 1× non-essential amino acids, 100 U/mL penicillin-streptomycin and 0.5 mg/mL G418 (Invitrogen). For dose-response testing, the cells are seeded in 96-well plates at 7.5×10^3 cells/well in a volume of 50 μL and incubated at 37° C./5% CO2. Three hours after plating, 50 μL of ten 2-fold serial dilutions of compounds (highest concentration, 75 μM) are added and cell cultures were incubated at 37° C./5% CO2 in the presence of 0.5% DMSO. Alternatively, compounds are tested at a single concentration of 15 μM. In all cases, Huh-7 cells lacking the HCV replicon served as negative control. The cells are incubated in the presence of compounds for 72 hours after which they were monitored for expression of the NS4A protein by enzyme-linked immunosorbent assay (ELISA). For this, the plates were then fixed for 1 min with 1:1 acetone:methanol, washed twice with phosphate-buffered saline (PBS), 0.1% Tween 20, blocked for 1 hour at room temperature with TNE buffer containing 10% FBS and then incubated for 2 h at 37° C. with the anti-NS4A mouse monoclonal antibody A-236 (ViroGen) diluted in the same buffer. After washing three times with PBS, 0.1% Tween 20, the cells are incubated 1 hour at 37° C. with anti-mouse immunoglobulin G-peroxidase conjugate in TNE, 10% FBS. After washing as described above, the reaction is developed with O-phenylenediamine (Zymed). The reaction is stopped after 30 minutes with […] and the absorbance is read at 492 nm using a Sunrise Tecan spectrophotometer. EC50 values are determined from the % inhibition versus concentration data using a sigmoidal non-linear regression analysis based on four parameters with Tecan Magellan software. When screening at a single concentration, the results are expressed as % inhibition at 15 μM. For cytotoxicity evaluation, GS4.1 cells are treated with compounds as described above and cellular viability was monitored using a Cell Titer 96 AQueous One Solution Cell Proliferation Assay (Promega). CC50 values are determined from the % cytotoxicity versus concentration data with Tecan Magellan software as described above.
# Compounds presented in the table below were assayed according to the replicon assay described above.
# [2] = Cytotoxicity evaluation in GS4.1 cells (Cell Titer 96 AQueous One Solution Cell Proliferation Assay); assay type: cell-based; conditions: human, cellular viability, treated as in replicon assay, read-out: HCV Replicon CC50
# Method: as §1
# [3] = Hepatitis C virus, Huh-7, 72 h, GS4.1 cells, 72 hours incubation, NS4A expression by ELISA
SMILES,"EC50 [1, 3]",CC50 at 72 h [2],"EC50 ([1]; Hepatitis C virus, Huh-7, 72 h)","EC50 ([1]; GS4.1 cells, 72 hours incubation, NS4A expression by ELISA)"
COC(=O)C(CC(C)C)NP(=O)(NC(CC(C)C)C(=O)OC)OC[C@H]1O[C@@H](n2cnc3c(OC)nc(N)nc32)[C@@](C)(O)C1O (stereo in doubt) [Compound 3],100 to 1000 nM,> 75 µM,,
COc1nc(N)nc2c1ncn2[C@@H]1O[C@H](COP(=O)(NC(CC(C)C)C(=O)OC(C)C)NC(CC(C)C)C(=O)OC(C)C)C(O)C1(C)O (stereo in doubt) [Compound 12],100 to 1000 nM,> 75 µM,,
CCOC(=O)C(Cc1ccccc1)NP(=O)(NC(Cc1ccccc1)C(=O)OCC)OC[C@H]1O[C@@H](n2cnc3c(OC)nc(N)nc32)C(C)(O)C1O (stereo in doubt) [Compound 16],< 100 nM,≤ 75 µM,,
COC(=O)C(CC(C)C)NP(=O)(NC(CC(C)C)C(=O)OC)OC[C@H]1O[C@@H](n2cnc3c(OC)nc(N)nc32)[C@@]2(C)OC(=O)OC12 (some centres unmarked) [Compound 4],< 100 nM,> 75 µM,,
CCOC(=O)C(CC(C)C)NP(=O)(NC(CC(C)C)C(=O)OCC)OC[C@H]1O[C@@H](n2cnc3c(NC4CC4)nc(N)nc32)C(C)(O)C1O (some centres unmarked) [Compound 6],< 100 nM,> 75 µM,,
COC(=O)C(CC(C)C)NP(=O)(NC(CC(C)C)C(=O)OC)OC[C@H]1O[C@@H](n2cnc3c(NC4CC4)nc(N)nc32)C(C)(O)C1O (some centres unmarked) [Compound 8],100 to 1000 nM,> 75 µM,,
COc1nc(N)nc2c1ncn2[C@@H]1O[C@H](COP(=O)(NC(Cc2ccccc2)C(=O)OC(C)C)NC(Cc2ccccc2)C(=O)OC(C)C)C(O)C1(C)O (some centres unmarked) [Compound 13],100 to 1000 nM,≤ 75 µM,,
C#CC1(F)C(O)[C@@H](COP(=O)(NC(CC(C)C)C(=O)OCC)NC(CC(C)C)C(=O)OCC)O[C@H]1n1cnc2c(=O)[nH]c(N)nc21 (some centres unmarked) [Compound 22],> 10000 nM,> 75 µM,,
C#CC1(F)C(O)[C@@H](COP(=O)(NC(CC(C)C)C(=O)OC)NC(CC(C)C)C(=O)OC)O[C@H]1n1cnc2c(=O)[nH]c(N)nc21 (some centres unmarked) [Compound 23],> 10000 nM,> 75 µM,,
CCOC(=O)[C@@H](NP(=O)(N[C@H](C(=O)OCC)c1ccccc1)OC[C@H]1O[C@@H](n2cnc3c(NC4CC4)nc(N)nc32)C(C)(O)C1O)c1ccccc1 (some centres unmarked) [Compound 30],1000 to 10000 nM,> 75 µM,,
CCOC(=O)[C@H](C)NP(=O)(N[C@@H](C)C(=O)OCC)OC[C@H]1O[C@@H](n2cnc3c(NC4CC4)nc(N)nc32)[C@@](C)(O)C1O (some centres unmarked) [Compound 31],100 to 1000 nM,> 75 µM,,
CCOC(=O)[C@H](Cc1ccccc1)NP(=O)(N[C@@H](Cc1ccccc1)C(=O)OCC)OC[C@H]1O[C@@H](n2cnc3c(NC4CC4)nc(N)nc32)[C@@](C)(O)C1O (some centres unmarked) [Compound 32],< 100 nM,> 75 µM,,
CCCOc1nc(N)nc2c1ncn2[C@@H]1O[C@H](COP(=O)(N[C@@H](CC(C)C)C(=O)OCC)N[C@@H](CC(C)C)C(=O)OCC)C(O)C1(C)O (some centres unmarked) [Compound 33],< 100 nM,≤ 75 µM,,
CCOC(=O)[C@H](CC(C)C)NP(=O)(N[C@@H](CC(C)C)C(=O)OCC)OC[C@H]1O[C@@H](n2cnc3c(N4CCOCC4)nc(N)nc32)C(C)(O)C1O (some centres unmarked) [Compound 34],100 to 1000 nM,> 75 µM,,
CCOC(=O)[C@H](CC(C)C)NP(=O)(N[C@@H](CC(C)C)C(=O)OCC)OC[C@H]1O[C@@H](n2cnc3c(N(C)C)nc(N)nc32)C(C)(O)C1O (some centres unmarked) [Compound 35],< 100 nM,> 75 µM,,
CCOC(=O)[C@H](CC(C)C)NP(=O)(N[C@@H](CC(C)C)C(=O)OCC)OC[C@H]1O[C@@H](n2cnc3c(N4CCCC4)nc(N)nc32)C(C)(O)C1O (some centres unmarked) [Compound 36],< 100 nM,> 75 µM,,
CCOC(=O)[C@H](CC(C)C)NP(=O)(N[C@@H](CC(C)C)C(=O)OCC)OC[C@H]1O[C@@H](n2cnc3c(=O)[nH]c(N)nc32)C(C)(O)C1O (some centres unmarked) [Compound 37],1000 to 10000 nM,> 75 µM,,

SMILES,"EC50 [1, 3]",CC50 at 72 h [2],"EC50 ([1]; Hepatitis C virus, Huh-7, 72 h)","EC50 ([1]; GS4.1 cells, 72 hours incubation, NS4A expression by ELISA)"
CCOC(=O)[C@H](CC(C)C)NP(=O)(N[C@@H](CC(C)C)C(=O)OCC)OC[C@H]1O[C@@H](n2cnc3c(NC4CCCC4)nc(N)nc32)C(C)(O)C1O (some centres unmarked) [Compound 38],< 100 nM,≤ 75 µM,,
CCCOC(=O)[C@H](CC(C)C)NP(=O)(N[C@@H](CC(C)C)C(=O)OCCC)OC[C@H]1O[C@@H](n2cnc3c(OC)nc(N)nc32)[C@@](C)(O)C1O (some centres unmarked) [Compound 43],< 100 nM,≤ 75 µM,,
CCCCOC(=O)[C@H](CC(C)C)NP(=O)(N[C@@H](CC(C)C)C(=O)OCCCC)OC[C@H]1O[C@@H](n2cnc3c(OC)nc(N)nc32)[C@@](C)(O)C1O (some centres unmarked) [Compound 44],< 100 nM,≤ 75 µM,,
C#CC1(F)C(O)[C@@H](COP(=O)(NCC(=O)OCC)NCC(=O)OCC)O[C@H]1n1cnc2c(=O)[nH]c(N)nc21 (some centres unmarked) [Compound 48],1000 to 10000 nM,> 75 µM,,
CCOC(=O)[C@H](CC(C)C)NP(=O)(N[C@@H](CC(C)C)C(=O)OCC)OC[C@H]1O[C@@H](n2ccc(OC)nc2=O)[C@](C)(O)[C@@H]1O [Compound 55],100 to 1000 nM,> 75 µM,,
COc1ccn([C@@H]2O[C@H](COP(=O)(NCc3ccccc3)OCCSC(=O)C(C)(C)CO)[C@@H](O)[C@@]2(C)O)c(=O)n1 (some centres unmarked) [Compound 56],< 100 nM,> 75 µM,,
COc1nc(N)nc2c1ncn2[C@@H]1O[C@H](COP(=O)(NC(C)C)OCCSC(=O)C(C)(C)CO)C(O)C1(C)O (some centres unmarked) [Compound 57],,,100 to 1000 nM,
COc1nc(N)nc2c1ncn2[C@@H]1O[C@H](COP(=O)(NCc2ccccc2)OCCSC(=O)C(C)(C)CO)C(O)C1(C)O (some centres unmarked) [Compound 57],,> 75 µM,< 100 nM,
CCOC(=O)[C@@H](NP(=O)(N[C@@H](C(=O)OCC)C(C)C)OC[C@H]1O[C@@H](n2cnc3c(OC)nc(N)nc32)C(C)(O)C1O)C(C)C (some centres unmarked) [Compound 58],< 100 nM,> 75 µM,,
CCOC(=O)[C@@H](NP(=O)(N[C@@H](C(=O)OCC)c1ccccc1)OC[C@H]1O[C@@H](n2cnc3c(OC)nc(N)nc32)C(C)(O)C1O)c1ccccc1 (some centres unmarked) [Compound 59],1000 to 10000 nM,> 75 µM,,
COC(=O)C1CCCN1P(=O)(OC[C@H]1O[C@@H](n2cnc3c(OC)nc(N)nc32)C(C)(O)C1O)N1CCCC1C(=O)OC (some centres unmarked) [Compound 60],100 to 1000 nM,> 75 µM,,
CCOC(=O)[C@@H](CC(C)C)NP(=O)(N[C@H](CC(C)C)C(=O)OCC)OC[C@H]1O[C@@H](n2cnc3c(OC)nc(N)nc32)C(C)(O)C1O (some centres unmarked) [Compound 61],,> 75 µM,,1000 to 10000 nM
CCOC(=O)[C@H](CC(C)C)NP(=O)(N[C@H](CC(C)C)C(=O)OCC)OC[C@H]1O[C@@H](n2cnc3c(OC(C)C)nc(N)nc32)C(C)(O)C1O (some centres unmarked) [Compound 62],< 100 nM,> 75 µM,,
CCOC(=O)[C@H](CC)NP(=O)(N[C@H](CC)C(=O)OCC)OC[C@H]1O[C@@H](n2cnc3c(OC)nc(N)nc32)C(C)(O)C1O (some centres unmarked) [Compound 63],100 to 1000 nM,> 75 µM,,
CCOC(=O)[C@H](CC(C)C)NP(=O)(N[C@H](CC(C)C)C(=O)OCC)OC[C@H]1O[C@@H](n2cnc3c(OCC)nc(N)nc32)C(C)(O)C1O (some centres unmarked) [Compound 64],< 100 nM,> 75 µM,,
CCOC(=O)[C@H](CC(C)C)NP(=O)(N[C@@H](CC(C)C)C(=O)OCC)OC[C@H]1O[C@@H](n2cnc3c(OC)nc(N)nc32)C(C)(O)C1O (some centres unmarked) [Compound 65],< 100 nM,> 75 µM,,
